Test results published in patent US8017612B2, “Piperazine compound and use thereof as a HCV polymerase inhibitor” (priority 2006, dated 2011).
Counter-ions that a name gives are not always drawn.

What was measured:
[1] = target: T1, HCV polymerase (NS5B) type 1b (Hepatitis C virus genotype 1b, UniProt P26663); assay: Assay of enzyme (HCV polymerase) inhibitory activity, type 1b enzyme; format: biochemical, HCV BK strain (type 1b); settings: HCV polymerase inhibitory activity (IC50), 1b, type 1b enzyme 0.5 μg/ml, 25° C., 60 min
T1 construct: a region encoding NS5B (J Virol 1991 March, 65(3), 1105-13, 544 amino acids after deletion of 47 amino acids on the C-terminal); 6xHis (C); made in house; host or cells: Escherichia coli
Description: (§1) The evaluation of the HCV polymerase inhibitory activity of the compound of the present invention is explained in the following. This polymerase is an enzyme coded for by the non-structural protein region called NS5B on the genome RNA of HCV.
(§2) i) Preparation of Enzyme (HCV Polymerase)
(§3) Using, as a template, a cDNA clone corresponding to the full length genome RNA of HCV BK strain (type 1b) obtained from the blood of a patient with hepatitis C, a region encoding NS5B (J Virol 1991 March, 65(3), 1105-13, 544 amino acids after deletion of 47 amino acids on the C-terminal) was amplified by PCR. The objective gene was prepared by adding a 6 His tag {base pair encoding 6 continuous histidine (His)} to the 3′ end thereof and transformed to Escherichia coli. The Escherichia coli capable of producing the objective protein was cultured. The obtained cells were suspended in a buffer solution and crushed in a microfluidizer. The supernatant was obtained by centrifugation and applied to various column chromatographys {mono-S, Sephacryl S-200 (Pharmacia)}, inclusive of metal chelate chromatography, to give a standard enzyme product.
(§4) ii) Synthesis of Substrate RNA
(§5) Using a synthetic primer designed based on the sequence of HCV genomic 3′ untranslated region, a DNA fragment (148 bp) containing polyU and 3′X sequence was entirely synthesized and cloned into plasmid pBluescript SK II(+) (Stratagene). The cDNA encoding full length NS5B, which was prepared in i) above, was digested with restriction enzyme KpnI to give a cDNA fragment containing the nucleotide sequence of from the restriction enzyme cleavage site to the termination codon. This cDNA fragment was inserted into the upstream of 3′ untranslated region of the DNA in pBluescript SK II(+) and ligated. The about 450 bp inserted DNA sequence was used as a template in the preparation of substrate RNA. This plasmid was cleaved immediately after the 3′X sequence, linearized and purified by phenol-chloroform treatment and ethanol precipitation to give DNA.
(§6) RNA was synthesized (37° C., 4 hr) by run-off method using this purified DNA as a template, a promoter of pBluescript SK II(+), MEGAscript RNA synthesis kit (Ambion) and T7 RNA polymerase. DNase I was added and the mixture was incubated for 1 hr. The template DNA was removed by decomposition to give a crude RNA product. This crude product was treated with phenol-chloroform and purified by ethanol precipitation to give the objective substrate RNA.
(§7) This RNA was applied to urea denaturation polyacrylamide gel electrophoresis to confirm the quality thereof and preserved at −80° C.
(§8) iii) Assay of Enzyme (HCV Polymerase) inhibitory activity
(§9) A test substance (compound of the present invention) and a reaction mixture (30 μl) having the following composition were reacted at 25° C. for 60 min.
(§10) 10% Trichloroacetic acid and 1% sodium pyrophosphate solution (150 μl) at 4° C. was added to this reaction mixture to stop the reaction. The reaction mixture was left standing at 4° C. for 15 min to insolubilize RNA. This RNA was trapped on a glass filter (PerkinElmer, GF/B) upon filtration by suction. This filter was washed with a solution containing 1% trichloroacetic acid and 0.1% sodium pyrophosphate, washed with 90% ethanol and dried. A liquid scintillation cocktail (PerkinElmer) was added and the radioactivity of RNA synthesized by the enzyme reaction was measured on a liquid scintillation counter.
The HCV polymerase inhibitory activity (IC50) of the compound of the present invention was calculated from the values of radioactivity of the enzyme reaction with and without the test substance.
Reaction mixture: HCV polymerase (type 1b 0.5 μg/ml or type 1a 1.5 μg/m) obtained in i), substrate RNA (5 μg/ml) obtained in ii), ATP (50 μM), GTP (50 μM), CTP (50 μM), UTP (2 μM), [5,6-^3H]UTP (30-60 Ci/mmol (Amersham Biosciences), 1 μCi) 20 mM Tris-HCl (pH 7.5), EDTA (1 mM), MgCl2 (5 mM), NaCl (50 mM), DTT (1 mM), BSA (0.01%)

[2] = target: T2, HCV polymerase (NS5B) type 1a (Hepatitis C virus genotype 1a, UniProt P26664); assay: Assay of enzyme (HCV polymerase) inhibitory activity, type 1a enzyme; format: biochemical, HCV type 1a (cloned from the blood of patients); settings: HCV polymerase inhibitory activity (IC50), 1a, type 1a enzyme 1.5 μg/ml, 25° C., 60 min
T2 construct: made in house; host or cells: Escherichia coli (by the 'similar method' of the 1b enzyme)
Description: as §1, §2, §3
Standard enzyme products for type 1a (cloned from the blood of patients) were also obtained by a similar method.
as §4, §5, §6, §7, §8, §9, §10
The HCV polymerase inhibitory activity (IC50) of the compound of the present invention was calculated from the values of radioactivity of the enzyme reaction with and without the test substance. […]

| Compound | IC50 [1] | IC50 [2] |
| --- | --- | --- |
| CC(C)c1ccc(CNC(=O)[C@H]2CNCCN2S(=O)(=O)c2ccc(C(F)(F)F)cc2)cc1 [Example 1, (R)-1-(4-trifluoromethyl-benzenesulfonyl)-piperazine-2-carboxylic acid 4-isopropyl-benzylamide hydrochloride] | > 1 µM | > 1 µM |
| CC(C)c1ccc(CNC(=O)[C@H]2CN(C(=O)Cc3ccncc3)CCN2S(=O)(=O)c2ccc(C(F)(F)F)cc2)cc1 [Example 2, (R)-4-(2-pyridin-4-yl-acetyl)-1-(4-trifluoromethyl-benzenesulfonyl)-piperazine-2-carboxylic acid 4-isopropyl-benzylamide] | 0.1 to 1 µM | 0.1 to 1 µM |
| CC(C)c1ccc(CNC(=O)[C@H]2CN(C(=O)Nc3ccncc3)CCN2S(=O)(=O)c2ccc(C(F)(F)F)cc2)cc1 [Example 3, (R)-4-(4-trifluoromethyl-benzenesulfonyl)-piperazine-1,3-dicarboxylic acid 3-(4-isopropyl-benzylamide) 1-pyridin-4-ylamide] | < 0.1 µM | < 0.1 µM |
| CC(C)c1ccc(CNC(=O)[C@H]2CN(C(N)=S)CCN2S(=O)(=O)c2ccc(C(F)(F)F)cc2)cc1 [Example 4, (R)-4-thiocarbamoyl-1-(4-trifluoromethyl-benzenesulfonyl)-piperazine-2-carboxylic acid 4-isopropyl-benzylamide] | 0.1 to 1 µM | 0.1 to 1 µM |
| Cc1nc(N2CCN(S(=O)(=O)c3ccc(C(F)(F)F)cc3)[C@@H](C(=O)NCc3ccc(C(C)C)cc3)C2)sc1C(=O)OC(C)(C)C [Example 5, 2-[(R)-3-(4-isopropyl-benzylcarbamoyl)-4-(4-trifluoromethyl-benzenesulfonyl)-piperazin-1-yl]-4-methyl-thiazole-5-carboxylic acid tert-butyl ester] | > 1 µM | > 1 µM |
| Cc1nc(N2CCN(S(=O)(=O)c3ccc(C(F)(F)F)cc3)[C@@H](C(=O)NCc3ccc(C(C)C)cc3)C2)sc1C(=O)O [Example 6, 2-[(R)-3-(4-isopropyl-benzylcarbamoyl)-4-(4-trifluoromethyl-benzenesulfonyl)-piperazin-1-yl]-4-methyl-thiazole-5-carboxylic acid] | < 0.1 µM | < 0.1 µM |
| Cc1nc(N2CCN(S(=O)(=O)c3ccc(C(F)(F)F)cc3)[C@@H](C(=O)NCc3ccc(C(C)C)cc3)C2)sc1C(N)=O [Example 7, (R)-4-(5-carbamoyl-4-methyl-thiazol-2-yl)-1-(4-trifluoromethyl-benzenesulfonyl)-piperazine-2-carboxylic acid 4-isopropyl-benzylamide] | < 0.1 µM | < 0.1 µM |
| COC(=O)c1cnc(N2CCN(S(=O)(=O)c3ccc(C(F)(F)F)cc3)[C@@H](C(=O)NCc3ccc(C(C)C)cc3)C2)cn1 [Example 8, (R)-3-(4-isopropyl-benzylcarbamoyl)-4-(4-trifluoromethyl-benzenesulfonyl)-3,4,5,6-tetrahydro-2H-[1,2′]bipyrazinyl-5′-carboxylic acid methyl ester] | < 0.1 µM | < 0.1 µM |
| CC(C)c1ccc(CNC(=O)[C@H]2CN(c3cnc(C(=O)O)cn3)CCN2S(=O)(=O)c2ccc(C(F)(F)F)cc2)cc1 [Example 9, (R)-3-(4-isopropyl-benzylcarbamoyl)-4-(4-trifluoromethyl-benzenesulfonyl)-3,4,5,6-tetrahydro-2H-[1,2′]bipyrazinyl-5′-carboxylic acid] | < 0.1 µM | < 0.1 µM |
| CC(=O)N1CCN(S(=O)(=O)c2ccc(OC(F)(F)F)c(I)c2)[C@@H](C(=O)NCc2ccc(C(C)C)cc2)C1 [Example 10, (R)-4-acetyl-1-(3-iodo-4-trifluoromethoxy-benzenesulfonyl)-piperazine-2-carboxylic acid 4-isopropyl-benzylamide] | < 0.1 µM | < 0.1 µM |
| CC(=O)N1CCN(S(=O)(=O)c2ccc(OC(F)(F)F)c(CCCC(=O)O)c2)[C@@H](C(=O)NCc2ccc(C(C)C)cc2)C1 [Example 11, 4-{5-[(R)-4-acetyl-2-(4-isopropyl-benzylcarbamoyl)-piperazine-1-sulfonyl]-2-trifluoromethoxy-phenyl}-butyric acid] | < 0.1 µM | < 0.1 µM |
| CCCc1ccc(CNC(=O)[C@H]2CN(C(C)=O)CCN2S(=O)(=O)c2ccc(C(C)C)cc2)c(C)c1 [Example 12, (R)-4-acetyl-1-(4-isopropyl-benzenesulfonyl)-piperazine-2-carboxylic acid 2-methyl-4-propyl-benzylamide] | < 0.1 µM | < 0.1 µM |
| Cc1nc(N2CCN(S(=O)(=O)c3ccc(OC(F)(F)F)cc3)[C@@H](C(=O)NCc3ccc(C(C)C)nc3)C2)sc1C(=O)O [Example 13, 2-[(R)-3-[(6-isopropyl-pyridin-3-ylmethyl)-carbamoyl]-4-(4-trifluoromethoxy-benzenesulfonyl)-piperazin-1-yl]-4-methyl-thiazole-5-carboxylic acid] | < 0.1 µM | < 0.1 µM |
| CCCc1ccc(CNC(=O)[C@H]2CN(c3nc(C)c(C(=O)O)s3)CCN2S(=O)(=O)c2ccc(OC(F)(F)F)cc2F)cc1 [Example 14, 2-[(R)-4-(2-fluoro-4-trifluoromethoxy-benzenesulfonyl)-3-(4-propyl-benzylcarbamoyl)-piperazin-1-yl]-4-methyl-thiazole-5-carboxylic acid] | < 0.1 µM | < 0.1 µM |
| CC(C)c1ccc(S(=O)(=O)N2CCNCC2C(=O)NCc2ccc(C(F)(F)F)cc2)cc1 (centres unmarked) [Example 15, 1-(4-isopropyl-benzenesulfonyl)-piperazine-2-carboxylic acid 4-trifluoromethyl-benzylamide hydrochloride] | > 1 µM | > 1 µM |
| CC(C)c1ccc(S(=O)(=O)N2CCN(C)CC2C(=O)NCc2ccc(C(F)(F)F)cc2)cc1 (centres unmarked) [Example 16, 1-(4-isopropyl-benzenesulfonyl)-4-methyl-piperazine-2-carboxylic acid 4-trifluoromethyl-benzylamide] | > 1 µM | > 1 µM |
| CC(C)c1ccc(S(=O)(=O)N2CCN(S(C)(=O)=O)CC2C(=O)NCc2ccc(C(F)(F)F)cc2)cc1 (centres unmarked) [Example 17, 1-(4-isopropyl-benzenesulfonyl)-4-methanesulfonyl-piperazine-2-carboxylic acid 4-trifluoromethyl-benzylamide] | > 1 µM | > 1 µM |
| CC(=O)N1CCN(S(=O)(=O)c2ccc(C(C)C)cc2)[C@@H](C(=O)NCc2ccc(C(F)(F)F)cc2)C1 [Example 18, (R)-4-acetyl-1-(4-isopropyl-benzenesulfonyl)-piperazine-2-carboxylic acid 4-trifluoromethyl-benzylamide] | 0.1 to 1 µM | 0.1 to 1 µM |
| CC(=O)N1CCN(S(=O)(=O)c2ccc(C(C)C)cc2)[C@H](C(=O)NCc2ccc(C(F)(F)F)cc2)C1 [Example 19, (S)-4-acetyl-1-(4-isopropyl-benzenesulfonyl)-piperazine-2-carboxylic acid 4-trifluoromethyl-benzylamide] | > 1 µM | > 1 µM |
